The values that follow come from patent publication US20230192661A1, “1, 4, 5, 6-TETRAHYDROPYRIMIDINE-2-AMINE DERIVATIVE” (UBE Corporation, priority 2020, published 2023).

Each structure is given as a SMILES string.

T1 sequence (P06756 31-889 limits assumed): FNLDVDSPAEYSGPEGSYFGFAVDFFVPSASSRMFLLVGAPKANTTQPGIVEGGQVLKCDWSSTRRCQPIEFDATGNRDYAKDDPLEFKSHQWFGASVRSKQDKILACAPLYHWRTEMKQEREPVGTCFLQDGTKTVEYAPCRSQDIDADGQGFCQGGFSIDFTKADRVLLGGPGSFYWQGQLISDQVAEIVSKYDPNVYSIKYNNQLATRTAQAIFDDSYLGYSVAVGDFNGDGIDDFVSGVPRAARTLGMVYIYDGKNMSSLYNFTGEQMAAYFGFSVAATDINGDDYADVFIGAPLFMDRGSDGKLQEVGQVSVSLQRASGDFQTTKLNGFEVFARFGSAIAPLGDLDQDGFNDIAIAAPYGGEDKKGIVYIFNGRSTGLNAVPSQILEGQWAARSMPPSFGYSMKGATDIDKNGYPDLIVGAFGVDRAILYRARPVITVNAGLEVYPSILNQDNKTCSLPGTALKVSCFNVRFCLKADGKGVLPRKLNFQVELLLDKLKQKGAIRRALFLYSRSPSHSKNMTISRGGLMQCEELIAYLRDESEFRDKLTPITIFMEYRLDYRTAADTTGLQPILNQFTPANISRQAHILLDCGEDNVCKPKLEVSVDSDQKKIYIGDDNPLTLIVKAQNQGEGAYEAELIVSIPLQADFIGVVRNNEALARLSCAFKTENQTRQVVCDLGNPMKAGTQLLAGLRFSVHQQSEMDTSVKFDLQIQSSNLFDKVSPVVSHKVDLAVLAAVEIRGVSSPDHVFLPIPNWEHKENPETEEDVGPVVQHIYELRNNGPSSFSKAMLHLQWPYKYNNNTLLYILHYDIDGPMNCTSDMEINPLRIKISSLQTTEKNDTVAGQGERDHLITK
T1 sequence (P06756 891-1048 limits assumed): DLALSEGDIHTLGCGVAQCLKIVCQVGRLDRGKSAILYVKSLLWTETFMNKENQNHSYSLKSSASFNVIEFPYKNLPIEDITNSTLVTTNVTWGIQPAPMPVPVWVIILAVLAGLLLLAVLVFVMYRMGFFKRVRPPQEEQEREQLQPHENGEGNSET
T1 sequence (P18564 22-788): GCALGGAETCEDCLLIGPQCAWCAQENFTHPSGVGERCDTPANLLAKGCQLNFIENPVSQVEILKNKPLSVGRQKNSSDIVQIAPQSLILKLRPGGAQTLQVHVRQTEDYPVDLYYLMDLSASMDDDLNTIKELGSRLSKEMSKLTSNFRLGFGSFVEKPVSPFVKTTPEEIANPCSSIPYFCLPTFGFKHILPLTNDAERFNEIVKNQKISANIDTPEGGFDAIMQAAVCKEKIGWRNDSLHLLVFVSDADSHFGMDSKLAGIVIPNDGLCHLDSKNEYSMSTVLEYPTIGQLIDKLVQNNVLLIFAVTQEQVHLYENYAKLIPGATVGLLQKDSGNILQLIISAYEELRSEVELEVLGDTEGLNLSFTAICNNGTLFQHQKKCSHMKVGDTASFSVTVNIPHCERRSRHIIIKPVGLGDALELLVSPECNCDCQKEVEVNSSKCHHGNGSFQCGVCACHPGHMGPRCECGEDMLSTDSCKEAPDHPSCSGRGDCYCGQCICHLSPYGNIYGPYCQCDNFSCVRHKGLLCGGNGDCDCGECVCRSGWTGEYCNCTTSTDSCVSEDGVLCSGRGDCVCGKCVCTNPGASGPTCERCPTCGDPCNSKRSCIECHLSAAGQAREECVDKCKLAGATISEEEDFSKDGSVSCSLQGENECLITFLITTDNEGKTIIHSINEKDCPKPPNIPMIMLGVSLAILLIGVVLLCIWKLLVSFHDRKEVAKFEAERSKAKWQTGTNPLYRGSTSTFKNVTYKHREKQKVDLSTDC

This assay addresses T1, αvβ6 (Homo sapiens, UniProt P06756+P18564).
T1 construct: endogenous in cells; host or cells: HT-29 cells
Nature of the assay: αvβ6 cell adhesion inhibition test (HT-29 cells on recombinant human LAP protein). The following applies: recombinant human LAP coating, 200 μM MnCl2, 1 hour, read-out: IC50 (rate of inhibition of cell adhesion, αvβ6). It is filed as cell-based. How it is done:
Test Example 2 was performed by partially modifying the method of Henderson et al. (Nat Med., 19 (12), 1617-24, 2013). In Test Example 2, the same reagents as in Test Example 1 were used unless otherwise specified.
Recombinant human LAP protein (manufactured by R&D Systems, Inc., 246-LP-025) was prepared at […] with PBS, dispensed at 100 μL/well to a 96-well plate, and left standing overnight. The plate was washed with HBSS, then subjected to blocking treatment with DMEM containing 1% BSA, and used as a coated plate in the adhesion test.
HT-29 cells cultured in McCoy's 5A medium (manufactured by Thermo Fisher Scientific, Inc., 16600) containing 10% FBS and 1% penicillin/streptomycin/amphotericin B were recovered and suspended in DMEM containing 0.1% BSA and 200 μM MnCl2 to prepare a cell suspension. A test compound was added thereto.
The cell suspension of 5×10^5 cells/mL containing the test compound was added at 100 μL/well to the coated plate and left standing for 1 hour in a 5% CO2 incubator (37° C.). One hour later, the supernatant was removed, and the plate was washed with HBSS containing 200 μM MnCl2. The cells that adhered to each well in the plate were stained with crystal violet, and the cells were lysed, followed by absorbance measurement. Inhibition without substrate coating was defined as 100% inhibition, and inhibition when DMSO was added instead of the test compound was defined as 0% inhibition. The rate of inhibition of cell adhesion by the test compound was calculated according to the following expression.
Rate of inhibition of cell adhesion (%)=[1−{(Absorbance in the case of adding the test compound)−(Absorbance without substrate coating)}/{(Absorbance in the case of adding DMS)−(Absorbance without substrate coating)}]×100
An IC50 value was calculated from the rate of inhibition of cell adhesion by the test compound. A: IC50<3 nM, B: 3 nM≤IC50<10 nM, C: 10 nM≤IC50<30 nM, D: 30 nM≤IC50<100 nM, or E: IC50≥100 nM.
Turning to `O=C(O)C[C@H](NC(=O)CNC(=O)c1cc(NC2=NCC(F)CN2)c2cn[nH]c2c1)c1cc(Cl)cc(OC(F)(F)F)c1` (stereo partly drawn) [Example 31-(b), (3S)-3-(3-chloro-5-(trifluoromethoxy)phenyl)-3-(2-(4-((5-fluoro-1,4,5,6-tetrahydropyrimidin-2-yl)amino)-1H-indazole-6-carboxamido)acetamido)propanoic acid], the half-inhibitory concentration (IC50) (as a rule, the point on the concentration scale where inhibition reaches its midpoint) was under 3 nM. Then `O=C(O)C[C@H](NC(=O)CNC(=O)c1cc(NC2=NCC(F)CN2)c2cn[nH]c2c1)c1cc(C(F)(F)F)cc(C(F)(F)F)c1` (stereo partly drawn) [Example 7-(b), (3S)-3-(3,5-bis(trifluoromethyl)phenyl)-3-(2-(4-((5-fluoro-1,4,5,6-tetrahydropyrimidin-2-yl)amino)-1H-indazole-6-carboxamido)acetamido)propanoic acid], with under 3 nM. Under `O=C(O)C[C@H](NC(=O)CNC(=O)c1cc(NC2=NCC(F)CN2)c2cn[nH]c2c1)c1cc(Cl)c(F)c(C(F)(F)F)c1` (stereo partly drawn) [Example 15-(b), (3S)-3-(3-chloro-4-fluoro-5-(trifluoromethyl)phenyl)-3-(2-(4-((5-fluoro-1,4,5,6-tetrahydropyrimidin-2-yl)amino)-1H-indazole-6-carboxamido)acetamido)propanoic acid] stands under 3 nM; under `COc1cc([C@H](CC(=O)O)NC(=O)CNC(=O)c2cc(NC3=NCC(F)CN3)c3cn[nH]c3c2)cc(C(F)(F)F)c1` (stereo partly drawn) [Example 5-(b), (3S)-3-(2-(4-((5-fluoro-1,4,5,6-tetrahydropyrimidin-2-yl)amino)-1H-indazole-6-carboxamido)acetamido)-3-(3-methoxy-5-(trifluoromethyl)phenyl)propanoic acid], under 3 nM; under `O=C(O)C[C@H](NC(=O)CNC(=O)c1cc(NC2=NCC(F)CN2)c2cn[nH]c2c1)c1cc(Br)ccc1F` (stereo partly drawn) [Example 23-(b), (3S)-3-(5-bromo-2-fluorophenyl)-3-(2-(4-((5-fluoro-1,4,5,6-tetrahydropyrimidin-2-yl)amino)-1H-indazole-6-carboxamido)acetamido)propanoic acid], 3 to 10 nM. For `O=C(O)C[C@H](NC(=O)CNC(=O)c1cc(NC2=NCC(F)CN2)c2cn[nH]c2c1)c1cccc(C(F)(F)F)c1Cl` (stereo partly drawn) [Example 10-(b), (3S)-3-(2-chloro-3-(trifluoromethyl)phenyl)-3-(2-(4-((5-fluoro-1,4,5,6-tetrahydropyrimidin-2-yl)amino)-1H-indazole-6-carboxamido)acetamido)propanoic acid], the IC50 is at least 100 nM. Under `O=C(O)C[C@H](NC(=O)CNC(=O)c1cc(NC2=NCC(F)CN2)c2cn[nH]c2c1)c1cc(Cl)ccc1F` (stereo partly drawn) [Example 22-(b), (3S)-3-(5-chloro-2-fluorophenyl)-3-(2-(4-((5-fluoro-1,4,5,6-tetrahydropyrimidin-2-yl)amino)-1H-indazole-6-carboxamido)acetamido)propanoic acid] stands 3 to 10 nM; under `O=C(O)C[C@H](NC(=O)CNC(=O)c1cc(NC2=NCC(F)CN2)c2cn[nH]c2c1)c1cc(OC(F)F)cc(OC(F)F)c1` (stereo partly drawn) [Example 30-(b), (3S)-3-(3,5-bis(difluoromethoxy)phenyl)-3-(2-(4-((5-fluoro-1,4,5,6-tetrahydropyrimidin-2-yl)amino)-1H-indazole-6-carboxamido)acetamido)propanoic acid], under 3 nM; under `O=C(O)C[C@H](NC(=O)CNC(=O)c1cc(NC2=NCC(F)CN2)c2cn[nH]c2c1)c1cc(OC(F)(F)F)ccc1F` (stereo partly drawn) [Example 33-(b), (3S)-3-(2-(4-((5-fluoro-1,4,5,6-tetrahydropyrimidin-2-yl)amino)-1H-indazole-6-carboxamido)acetamido)-3-(2-fluoro-5-(trifluoromethoxy)phenyl)propanoic acid], under 3 nM. Turning to `O=C(O)C[C@H](NC(=O)CNC(=O)c1cc(NC2=NCC(F)CN2)cc2[nH]ncc12)c1cccc(C(F)(F)F)c1` (stereo partly drawn) [Example 56-(b), (3S)-3-(2-(6-((5-fluoro-1,4,5,6-tetrahydropyrimidin-2-yl)amino)-1H-indazole-4-carboxamido)acetamido)-3-(3-(trifluoromethyl)phenyl)propanoic acid], the IC50 was 3 to 10 nM. Then `O=C(O)C[C@H](NC(=O)CNC(=O)c1cc(NC2=NCC(F)CN2)c2cn[nH]c2c1)c1cc(OC(F)F)ccc1F` (stereo partly drawn) [Example 28-(b), (3S)-3-(5-(difluoromethoxy)-2-fluorophenyl)-3-(2-(4-((5-fluoro-1,4,5,6-tetrahydropyrimidin-2-yl)amino)-1H-indazole-6-carboxamido)acetamido)propanoic acid], with under 3 nM; and `O=C(O)C[C@H](NC(=O)CNC(=O)c1cc(NC2=NCC(F)CN2)c2cn[nH]c2c1)c1cccc(C(F)(F)F)c1` (stereo partly drawn) [Example 35-(b), (3S)-3-(2-(4-((5-fluoro-1,4,5,6-tetrahydropyrimidin-2-yl)amino)-1H-indazole-6-carboxamido)acetamido)-3-(3-(trifluoromethyl)phenyl)propanoic acid], with under 3 nM. With `O=C(O)C[C@H](NC(=O)CNC(=O)c1cc(NC2=NCC(F)CN2)c2cn[nH]c2c1)c1cc(Cl)cc(OC(F)F)c1` (stereo partly drawn) [Example 25-(b), (3S)-3-(3-chloro-5-(difluoromethoxy)phenyl)-3-(2-(4-((5-fluoro-1,4,5,6-tetrahydropyrimidin-2-yl)amino)-1H-indazole-6-carboxamido)acetamido)propanoic acid], the IC50 is under 3 nM.

As to `COc1ccc([C@H](CC(=O)O)NC(=O)CNC(=O)c2cc(NC3=NCC(F)CN3)c3cn[nH]c3c2)cc1Br` (stereo partly drawn) [Example 16-(b), (3S)-3-(3-bromo-4-methoxyphenyl)-3-(2-(4-((5-fluoro-1,4,5,6-tetrahydropyrimidin-2-yl)amino)-1H-indazole-6-carboxamido)acetamido)propanoic acid], the IC50 is under 3 nM. Then `O=C(O)C[C@H](NC(=O)CNC(=O)c1cc(NC2=NCC(F)CN2)c2cn[nH]c2c1)c1cc(I)cc(C(F)(F)F)c1` (stereo partly drawn) [Example 3-(b), (3S)-3-(2-(4-((5-fluoro-1,4,5,6-tetrahydropyrimidin-2-yl)amino)-1H-indazole-6-carboxamido)acetamido)-3-(3-iodo-5-(trifluoromethyl)phenyl)propanoic acid], with under 3 nM; and `O=C(O)C[C@H](NC(=O)CNC(=O)c1cc(NC2=NCC(F)CN2)cc2[nH]ncc12)c1cc(Br)cc(C(F)(F)F)c1` (stereo partly drawn) [Example 53-(b), (3S)-3-(3-bromo-5-(trifluoromethyl)phenyl)-3-(2-(6-((5-fluoro-1,4,5,6-tetrahydropyrimidin-2-yl)amino)-1H-indazole-4-carboxamido)acetamido)propanoic acid], with under 3 nM. With `O=C(O)C[C@H](NC(=O)CNC(=O)c1cc(NC2=NCC(F)CN2)c2cn[nH]c2c1)c1cccc(-n2cccn2)c1` (stereo partly drawn) [Example 43-(b), (3S)-3-(3-(1H-pyrazol-1-yl)phenyl)-3-(2-(4-((5-fluoro-1,4,5,6-tetrahydropyrimidin-2-yl)amino)-1H-indazole-6-carboxamido)acetamido)propanoic acid], the IC50 was under 3 nM.
